For data set [1], the system named is M109 lung carcinoma. The data set can be described thus: Inhibition of M109 lung carcinoma growth in vivo. The conditions noted are these: 0.4 mg/kg iv twice daily for 5 days, day 12. More on the design: species or system mouse. How it is done:
Inhibition of M109 Lung Cancer Cell Growth by Iron Chelators In Vivo Female CD2F1 mice aged 8-10 weeks old were sc implanted with 1×10^5 M109 cells. The tumour cells were passaged in CD2F1 mice by preparing a brei from the tumour and injecting it sc.^20 Dp44mT was dissolved in 30% (v/v) propylene glycol in saline and injected iv 4 days after tumour engraftment, twice daily for 5 days followed by a “rest period” of 2 days when the animal was not injected. On the twelfth day after tumour implantation, mice were sacrificed using methoxyfluorane and cardiac puncture performed. Blood counts and erythrocyte indices were measured using a Sysmex Blood Counter (Prince of Wales Hospital, Sydney, Australia). Mouse body weight changes during the treatment period were recorded. The tumours were weighed and fixed for histological examination. The experimental groups consisted of eight mice for the control and each treatment (Table 5).
As a relevant positive control, animals were administered Triapine® at its MTD (6 mg/kg). The tumour weight was measured on the twelfth day after the tumour cell implantation.

A short description of data set [2]: Mouse weight loss and haematological indices in M109-bearing mice. The data set is classed as in vivo. The following applies: Mean ± SEM. How it is done: The tumour cells were passaged in CD2F1 mice by preparing a brei from the tumour and injecting it sc.^20 Dp44mT was dissolved in 30% (v/v) propylene glycol in saline and injected iv 4 days after tumour engraftment, twice daily for 5 days followed by a “rest period” of 2 days when the animal was not injected. On the twelfth day after tumour implantation, mice were sacrificed using methoxyfluorane and cardiac puncture performed. Blood counts and erythrocyte indices were measured using a Sysmex Blood Counter (Prince of Wales Hospital, Sydney, Australia). Mouse body weight changes during the treatment period were recorded. The tumours were weighed and fixed for histological examination. The experimental groups consisted of eight mice for the control and each treatment (Table 5).

The test system of data set [3] is M109 cells. The data set can be described thus: Apoptosis assay by flow cytometry (Annexin V-FITC / PI), cultured M109 cells. The data set is classed as cell-based, mouse. How it is done:
Apoptotic cells were detected by a flow cytometer (FACSCalibur, Becton Dickinson, Calif., USA) using fluorescein isothiocyanate (FITC) labelled Annexin V binding to translocated plasma membrane phosphatidylserine (PS).^25 Propidium iodide (PI) was added to identify loss of cell membrane integrity, which is indicative of necrotic cells.
There was a dose-dependent increase in the percentage of apoptotic and dead cells after Dp44mT treatment (FIG. 13A). Exposure of cells to 1 μM Dp44mT caused a significant (p<0.05) increase of apoptotic and dead cells. This increase peaked at a Dp44mT concentration of 100 μM resulting in a population consisting of 40±7% apoptotic cells and 27±3% dead cells (FIG. 13A).

For data set [4], the system named is M109 lung carcinoma. Put plainly: In situ TUNEL assay of tumour samples from treated mice. The data set is classed as in vivo, mouse. The conditions noted are these: 0.4 mg/kg, compared to vehicle-treated controls (FIG. 12B).
The test system of data set [5] is active caspase-8. The data set can be described thus: Protein level of active caspase-8 in M109 cells (western blotting). The data set is classed as cell-based, mouse. The following applies: 1 μM. How it is done: FIG. 14. Effect of Dp44mT (1 μM) on the (A,B) protein levels of active caspase-3, -8 and -9, and (C,D) the activity of caspase-3, -8 and -9 in cultured M109 cells in the absence (C) and presence (D) of cell-permeable caspase inhibitors. (A) Caspase-3, -8, and -9 levels after Dp44mT treatment at indicated times as detected by western blotting (upper panel). The anti-β-actin antibody was used to ensure equal protein loading (lower panel). (B) Densitometric analysis of the expression of caspase-3, -8, and -9 as a function of time normalized to β-actin (C) Caspase activity induced by Dp44mT (1 μM) at 0-48 h was expressed as a percentage of the 0 h time value. (D) Cell-permeable inhibitors of caspase-3, -8 or -9 at 1 μM prevented activation of these enzymes when incubated with Dp44mT (1 μM) for 48 h. Results are mean±SEM of three separate experiments.
Rabbit anti-active caspase-3 antibody, rabbit anti-active caspase-8 antibody and Annexin V fluorescein isothiocyanate (FITC) were from BD PharMingen (San Diego, Calif., USA). Anti-h-cytc MoAb was from R&D Systems Minneapolis, Minn., USA). Rabbit anti-active caspase-9 antibody, mouse anti-Bcl-2 and mouse anti-Bax antibodies were obtained from Santa Cruz (Santa Cruz, Calif., USA). Mouse anti-mouse β-actin antibody, horseradish peroxidase-conjugated antirabbit, and anti-mouse IgG were from Sigma Chemical Co. (St. Louis, Mo., USA).
To determine the role of caspase activation in Dp44mT-induced apoptosis in M109 cells, protein levels of active caspase-3, -8 and -9 (FIG. 14A,B) and their enzymatic activity (FIG. 14C,D) were examined.
On the technique in general: Immunoblotting shows a protein as a band on a membrane.

Data set [6] deals with SK-N-MC neuroepithelioma cells. Put plainly: 3H-uridine incorporation by SK-N-MC cells. The data set is classed as cell-based, human. The following applies: 20 h incubation then 2 h label; Mean ± SD, 3 experiments. How it is done:
After a 20 h incubation of the SK-N-MC cells with a selection of analogues, ^3H-thymidine, ^3H-leucine, or ^3H-uridine (1 μCi/ml) was added for 2 h at 37° C. The cells were detached from the 96 well plate using 1 mM EDTA in Ca(II)/Mg(II)-free PBS and collected and washed using a cell harvester (Tomtec Harvester 96, Linbrook, Queensland, Australia). Radioactivity was measured on a P-scintillation counter (LKB Wallace, Turku, Finland).

The test system of data set [7] is GADD45 and WAF1 mRNA. The data set can be described thus: Northern blot of WAF1 and GADD45 mRNA expression in SK-N-MC cells. It is filed as cell-based, human. The conditions noted are these: DFO 100 μM, other chelators 25 μM, 20 h at 37° C. (FIG. 7). How it is done: FIG. 7. […] Northern blotting was performed using standard procedures (see Example 6).
Northern blot analysis was performed by isolating total RNA using the Total RNA Isolation Reagent (Advanced Biotechnologies Ltd, Surrey, United Kingdom). The membranes were hybridised with probes specific for human WAF1, GADD45, and β-actin. The WAF1 probe consisted of a 1 kb fragment from pSXV (ATCC; Cat. No. 79928). The GADD45 probe consisted of a 760 bp fragment from human GADD45 cDNA cloned into pHu145B2 (kindly supplied by Dr. Albert Fornace, National Cancer Institute, NIH, Maryland). The β-actin probe consisted of a 1.4 kb fragment from human β-actin cDNA cloned into pBluescript SK− (ATCC; Cat. No. 37997).

With `CN(C)C(=S)NN=C(c1ccccn1)c1ccccn1` [Dp44mT, di-2-pyridylketone 4,4-dimethyl-3-thiosemicarbazone], the tumour weight in data set [1] is 47 % of control. In addition, in data set [2] (Dp44mT 0.3 mg/kg), the Body weight loss is given as 1.3 ± 0.3 g, the Haematocrit was 0.40 ± 0.03, the Haemoglobin is recorded as 13.3 ± 0.5 g/dL and the Platelets is on record as 1019 ± 87 10^9/L. Also, in data set [2] (Dp44mT 0.3 mg/kg), the RBC is 8.9 ± 0.4 10^12/L and the WBC was 4.2 ± 0.4 10^9/L. Also, in data set [2] (Dp44mT 0.4 mg/kg), the Body weight loss is listed as 1.1 ± 0.2 g, the Haematocrit amounted to 0.40 ± 0.01, the Haemoglobin came to 11.8 ± 0.8 g/dL and the Platelets is given as 636 ± 88 10^9/L. Further, in data set [2] (Dp44mT 0.4 mg/kg), the RBC was 8.0 ± 0.6 10^12/L and the WBC was 3.9 ± 0.6 10^9/L. Besides, in data set [3] (1 μM, 12 h), the apoptotic cells is reported as 12±2%. In data set [3] (100 μM, 24 h), this molecule came in with an apoptotic cells of 40±7% and a dead cells of 27±3%. In data set [3] (250 μM, 24 h), this molecule came in with an apoptotic cell numbers of 20±2% and a dead cell population of 42±6%. Further, the “apoptotic cell death in tumour samples” value in data set [4] is recorded as “increased apoptotic cell death”. Also, in data set [5] (2 h), the “caspase-8 protein level” value was “not increased”. For the same molecule, the caspase-8 protein level in data set [5] (6 h) is listed as 150 % of the control. In data set [5] (12 h), the caspase-8 protein level was 400 % of the control. Moreover, the caspase-8 protein level result in data set [5] (24 h) is “about 4 fold that of control cells”. In addition, in data set [5] (48 h), the caspase-8 protein level is reported as 3.4 fold that of control cells.

On to `CC(=O)N(O)CCCCCNC(=O)CCC(=O)N(O)CCCCCNC(=O)CCC(=O)N(O)CCCCCN` [DFO, desferrioxamine], for which the “3H-Uridine Incorporation” value in data set [6] is 34 ± 5 % Control. For the same molecule, the “GADD45 and WAF1 mRNA expression” value in data set [7] is reported as “up-regulation”.
